Source: BigSolDB 2.1

Details: in n-octanol

Cc1ccccc1C(=O)O
Details	solubility (mole fraction)
297.15 K	0.155
299.65 K	0.165
301.15 K	0.18
302.65 K	0.19
304.75 K	0.196
305.35 K	0.197
306.25 K	0.2
306.95 K	0.208
308.95 K	0.219
310.65 K	0.23
312.25 K	0.239
314.05 K	0.25
315.75 K	0.26
316.95 K	0.271
318.75 K	0.281
320.35 K	0.294
321.55 K	0.305

O=C(O)c1ccccc1[N+](=O)[O-]
Details	solubility (mole fraction)
297.15 K	0.0761
299.65 K	0.0806
300.15 K	0.084
302.05 K	0.0895
303.15 K	0.0928
306.15 K	0.101
307.15 K	0.104
308.35 K	0.108
309.25 K	0.113
310.15 K	0.117
311.75 K	0.122
313.15 K	0.129
314.85 K	0.135
317.15 K	0.141
318.65 K	0.147
319.85 K	0.154
321.15 K	0.161

O=C(O)c1ccccc1
Details	solubility (mole fraction)
300.15 K	0.192

Cc1ccc(C(=O)O)cc1
Details	solubility (mole fraction)
297.35 K	0.0595
298.05 K	0.0608
298.95 K	0.0618
301.65 K	0.0663
307.25 K	0.0767
308.65 K	0.0789
309.65 K	0.0816
312.95 K	0.0871
314.35 K	0.0896
315.8 K	0.0925
317.65 K	0.0962
319.65 K	0.0997
320.4 K	0.101
321.55 K	0.103
322.15 K	0.104

O=C(O)c1ccc(O)cc1
Details	solubility (mole fraction)
297.65 K	0.105
299.95 K	0.107
301.45 K	0.109
302.85 K	0.11
304.25 K	0.112
305.85 K	0.113
306.95 K	0.115
308.15 K	0.116
309.85 K	0.117
311.25 K	0.119
313.15 K	0.121
315.45 K	0.122
317.25 K	0.124
318.65 K	0.126
320.55 K	0.128
322.25 K	0.13
